Tests used:
pro-form MMP-9 = experiment: Western blot: pro-form MMP-9 expression in LPS-treated NR8383 cells; assay type: cell-based, rat; conditions: 0.01 μg/mL LPS; 6.25 to 50 μg/mL; 24 hours
Method: Rat alveolar macrophage NR8383 cells were divided into six groups and separately cultivated with the following media for 24 hours: • (1) Control group: a macrophage growth medium containing 0.01 μg/mL LPS; • (2) Positive control group: a macrophage growth medium containing 0.01 μg/mL LPS and 1 μM Dex; and • (3) Extract A group (including four sub-groups): a macrophage growth medium containing 0.01 μg/mL LPS and the extract A provided by [preparation example A-2-2], wherein the extract A is present in the four sub-groups at a concentration of 6.25, 12.5, 25 and 50 μg/mL respectively.
Thereafter, the proteins in the cells of each group were extracted and then subjected to a Western blot to measure the expression level of pro-form MMP-9 (i.e., the zymogen form of MMP-9), active-form MMP-9 and MMP-12. The relative expression level of pro-form MMP-9, active-form MMP-9 and MMP-12 of each group was calculated by using the results of the control group as a basis (i.e., the expression level of control group was served as 1-fold).
Rat alveolar macrophage NR8383 cells were divided into ten groups and separately cultivated with the following media for 24 hours:
(1) Control group: a macrophage growth medium containing 0.01 μg/mL LPS;
(2) Positive control group: a macrophage growth medium containing 0.01 μg/mL LPS and 1 μM Dex; […]

MMP-9 = experiment: Gelatin zymography: LPS-activated active expression of MMP-9 in NR8383 cells; assay type: cell-based, rat; conditions: Table 5, LPS 1 μg/mL, 24 hours
Description: As indicated above, when an inflammatory response occurs in animal's pulmonary tissue, the active inflammatory cells will secret MMPs that will destroy the pulmonary tissue structure, cause more serious pulmonary injury, and lead to the decrement in or the loss of pulmonary functions. […]
Thereafter, the medium of each group was collected and respectively subjected to the following procedures. A 10% polyacrylamide gel containing 0.2% gelatin was used to carry out the sodium dodecyl sulfate polyacrylamide gel electrophoresis (SDS-PAGE). After the electrophoresis was completed, the gel was sequentially soaked in 2.5% Triton X-100 solution for 90 minutes to remove SDS, soaked in distillation-distillation water (ddH2O) for 30 minutes, and placed in a reaction solution (50 mM Tris-HCl buffer containing 10 mM CaCl2 and 0.02% NaN3) at a temperature of 37° C. for 18 hours. After the foregoing reaction was completed, the gel was stained by a Coomassie blue staining solution, and the image of stained gel was taken and subjected to an image analysis. The image intensity (the image intensity was calculated based on the size of area and the shade of color) of highlight band (i.e., the gelatin in this area was degraded by MMPs, wherein the area locating around 95 kD molecular weight) on the gel of each group can reflect the active expression of MMP-9 of rat alveolar macrophage NR8383 cells under different conditions (the relative active expression of MMP-9 was calculated by serving the results of the blank group as 0% and serving that of the control group as 100%).
Rat alveolar macrophage NR8383 cells were divided into twenty-eight groups and separately cultivated with the following media for 24 hours: • (1) Blank group: a macrophage growth medium; • (2) Control group: a macrophage growth medium containing 1 μg/mL LPS; • (3) Positive control group: a macrophage growth medium containing 1 μg/mL LPS and 5 μM Prednisolone (a type of corticosteroid; abbreviated as “Pred”; purchased from Sigma-Aldrich); • (4) Extract C (including five sub-groups): a macrophage growth medium containing 1 μg/mL LPS and the extract C provided by [preparation example A-3-2], wherein the extract C is present in the five sub-groups at a concentration of […] respectively; • (5) Extract D (including five sub-groups): a macrophage growth medium containing 1 μg/mL UPS and the extract D provided by [preparation example A-4-2], wherein the extract D is present in the five sub-groups at a concentration of 0.78, 1.56, 3.13, 6.25 and 12.5 respectively; • (6) Extract E (including five sub-groups): a macrophage growth medium containing 1 μg/mL LPS and the extract E provided from [preparation example A-4-3], wherein the extract E is present in the five sub-groups at a concentration of 0.78, 1.56, 3.13, […], and 12.5 respectively; • (7) DATA group (including five sub-groups): a macrophage growth medium containing 1 μg/mL LPS and the dehydrotrametenolic acid (DTTA) provided by [preparation example C-1], wherein the dehydrotrametenolic acid (DTTA) is present in the five sub-groups at a concentration of 0.39, 0.78, 1.56, 3.13 and 6.25 μg/mL respectively; and • (8) PAA group (including live sub-groups): a macrophage growth medium containing 1 μg/mL LPS and the poricoic acid A (PAA) provided from [preparation example C-1], wherein the poricoic acid A (PAA) is present in the five sub-groups at a concentration of 6.25, 12.5, 25, 50 and 100 respectively.
Thereafter, the medium of each group was collected and analyzed by the analyzing procedures same as that of (1-1).

In the case of `C=C(CC[C@@H](C(=O)O)[C@H]1[C@H](O)C[C@@]2(C)C3=CC[C@@H](C(=C)C)[C@](C)(CCC(=O)O)C3=CC[C@]12C)C(C)C` [PAA, poricoic acid A], the “Expression level of pro-form MMP-9 in comparison with the control group (in words)” value (pro-form MMP-9) is reported as “effective in inhibiting”, the “Relative active expression of MMP-9 (%)” value (MMP-9; 6.25 μg/mL) is reported as 82% and the “Relative active expression of MMP-9 (%)” value (MMP-9; 12.5 μg/mL) is reported as 77%. The “Relative active expression of MMP-9 (%)” value (MMP-9; 25 μg/mL) was 60%, the “Relative active expression of MMP-9 (%)” value (MMP-9; 50 μg/mL) was 35% and the “Relative active expression of MMP-9 (%)” value (MMP-9; 100 μg/mL) was 18%.

Reference: US10973863B2, “Method for regulating, preventing and/or treating pulmonary injury” (SINPHAR PHARMACEUTICAL CO., LTD., priority 2017, dated 2021)
